Test results as given in ChEMBL document CHEMBL5321200, “Discovery of the GSH responsive "Y-PROTACs" targeting ALK and CDK4/6 as a potential treatment for cancer” (Eur J Med Chem, 2023).
Calls of active or inactive are those of the source. The calls are words filed in the database; no cut-off is given here.

Tests used:
[1] = target: Protein cereblon/ALK tyrosine kinase receptor (Homo sapiens) (UniProt Q9UM73+Q96SW2); experiment: PROTAC activity at CRBN/ALK in human NCI-H3122 cells assessed as degradation of ALK protein at 5 uM pretreated with ceritinib for 4 hrs followed by compound addition and measured after 24 hrs by Western blot analysis; format: cell-based
[2] = target: T1, Protein cereblon/Cyclin-dependent kinase 4 (Homo sapiens, UniProt P11802+Q96SW2); experiment: PROTAC activity at CRBN/CDK4 in human NCI-H3122 cells assessed as degradation of CDK4 protein at 5 uM pretreated with palbociclib for 4 hrs followed by compound addition and measured after 24 hrs by Western blot analysis; format: cell-based
[3] = target: T2, Protein cereblon/ALK tyrosine kinase receptor/Echinoderm microtubule-associated protein-like 4 (Homo sapiens) (UniProt Q9UM73+Q9HC35+Q96SW2); experiment: PROTAC activity at CRBN/EML4-ALK in human NCI-H2228 cells assessed as reduction in EML4-ALK fusion protein level incubated for 24 hrs by Western blot analysis; format: cell-based
[4] = target: T1, Protein cereblon/Cyclin-dependent kinase 4; experiment: PROTAC activity at CRBN/CDK4 in human NCI-H3122 cells assessed as reduction in CDK4 protein level at 5 uM incubated for 16 hrs followed by compound washout and measured after 8 hrs by Western blot analysis; format: cell-based
NCI-H3122 [5] = experiment: Antitumor activity against human NCI-H3122 cells xenografted in BALB/c nude mouse assessed as reduction in tumor weight at 75 mg/kg, IG administered once daily for 18 days and measured after 12 hrs of last dose; format: functional, organism-based; details: time 444.0 hrs
[6] = Stability of the compound in PBS buffer incubated upto 24 hrs in the presence of GSH by LC-MS/MS analysis; format: physicochemical
NCI-H3122 [7] = experiment: Cell cycle arrest in human NCI-H3122 cells assessed as accumulation of cells at G0/G1 phase at 0.625 uM incubated for 24 hrs by propidium iodide staining based flow cytometric analysis (reference value: 48.68%); format: functional
NCI-H3122 [8] = experiment: Cell cycle arrest in human NCI-H3122 cells assessed as G2/M phase cells at 0.312 uM incubated for 24 hrs by propidium iodide staining based flow cytometric analysis (reference value: 20.89%); format: functional
NCI-H3122 [9] = experiment: Cell cycle arrest in human NCI-H3122 cells assessed as accumulation of cells at G0/G1 phase at 2.5 uM incubated for 24 hrs by propidium iodide staining based flow cytometric analysis (reference value: 48.68%); format: functional
[10] = target: T1, Protein cereblon/Cyclin-dependent kinase 4; experiment: PROTAC activity at CRBN/CDK4 in human NCI-H3122 cells assessed as induction of CDK4 protein degradation at 5 uM measured after 16 hrs by Western blot analysis; format: cell-based
[11] = target: T2, Protein cereblon/ALK tyrosine kinase receptor/Echinoderm microtubule-associated protein-like 4 (Homo sapiens); experiment: PROTAC activity at CRBN/EML4-ALK in human NCI-H3122 cells assessed as reduction in EML4-ALK fusion protein level at 0.1 to 20 uM incubated for 24 hrs in presence of GSH by Western blot analysis; format: cell-based; details: dose 0.1-20 µM
NCI-H3122 [12] = experiment: Antiproliferative activity against human NCI-H3122 cells assessed as inhibition of cell growth incubated for 5 days by MTT assay; format: functional, cell-based; details: NCI-H3122, 120 h
[13] = target: T1, Protein cereblon/Cyclin-dependent kinase 4; experiment: PROTAC activity at CRBN/CDK4 in human NCI-H3122 cells assessed as increase in CDK4 protein level at 5 uM measured after 24 hrs by Western blot analysis; format: cell-based
[14] = target: T1, Protein cereblon/Cyclin-dependent kinase 4; experiment: PROTAC activity at CRBN/CDK4 in human L02 cells assessed as reduction in CDK4 protein level at 1 to 20 uM incubated for 24 hrs by Western blot analysis; format: cell-based; details: dose 1-20 µM
NCI-H3122 [15] = experiment: Induction of apoptosis in human NCI-H3122 cells assessed as viable cells at 0.625 uM incubated for 48 hrs by Annexin V-FITC/propidium iodide staining based flow cytometric analysis (reference value: 95.66%); format: functional; details: read-out: Activity
[16] = Toxicity in BALB/c nude mouse xenografted with human NCI-H3122 cells assessed as effect on liver function at 75 mg/kg, IG administered once daily for 18 days by H and E staining based assay; format: organism-based; details: in vivo, po, 432 h, time 18 day
[17] = Toxicity in BALB/c nude mouse xenografted with human NCI-H3122 cells assessed as effect on visceral heart morphology at 75 mg/kg, IG administered once daily for 18 days and measured after 12 hrs of last dose by H and E staining based analysis; format: organism-based; details: in vivo, po, 444 h
[18] = Toxicity in BALB/c nude mouse xenografted with human NCI-H3122 cells assessed as effect on visceral spleen morphology at 75 mg/kg, IG administered once daily for 18 days and measured after 12 hrs of last dose by H and E staining based analysis; format: organism-based; details: in vivo, po, 444 h
NCI-H3122 [19] = experiment: Induction of apoptosis in human NCI-H3122 cells assessed as necrotic cells at 2.5 uM incubated for 48 hrs by Annexin V-FITC/propidium iodide staining based flow cytometric analysis (reference value: 0.57%); format: functional
[20] = Stability of the compound in PBS buffer assessed as cleavage half life in presence of GSH by LC-MS/MS analysis; format: physicochemical; details: PBS buffer with GSH
NCI-H3122 [21] = experiment: Cell cycle arrest in human NCI-H3122 cells assessed as accumulation of cells at G0/G1 phase at 1.25 uM incubated for 24 hrs by propidium iodide staining based flow cytometric analysis (reference value: 48.68%); format: functional
NCI-H3122 [22] = experiment: Induction of apoptosis in human NCI-H3122 cells assessed as early apoptotic cells at 0.625 uM incubated for 48 hrs by Annexin V-FITC/propidium iodide staining based flow cytometric analysis (reference value: 0.71%); format: functional
[23] = target: T2, Protein cereblon/ALK tyrosine kinase receptor/Echinoderm microtubule-associated protein-like 4 (Homo sapiens); experiment: PROTAC activity at CRBN/EML4-ALK in human L02 cells assessed as reduction in ALK protein level at 1 to 20 uM incubated for 24 hrs by Western blot analysis; format: cell-based; details: dose 1-20 µM
[24] = Toxicity in BALB/c nude mouse xenografted with human NCI-H3122 cells assessed as effect on heart function at 75 mg/kg, IG administered once daily for 18 days and measured after 12 hrs of last dose by H and E staining based assay; format: organism-based; details: in vivo, po, 444 h
NCI-H2228 = experiment: Antiproliferative activity against human NCI-H2228 cells assessed as inhibition of cell growth pretreated with GSH followed by compound addition and incubated for 3 to 5 days by MTT assay; format: functional, cell-based
[25] = target: ALK tyrosine kinase receptor (Homo sapiens) (UniProt Q9UM73); experiment: Inhibition of ALK (unknown origin) at 0.05 uM by LANCE Ultra TR-FRET assay relative to control
NCI-H3122 [26] = experiment: Induction of apoptosis in human NCI-H3122 cells assessed as early apoptotic cells at 0.312 uM incubated for 48 hrs by Annexin V-FITC/propidium iodide staining based flow cytometric analysis (reference value: 0.71%); format: functional
[27] = target: T1, Protein cereblon/Cyclin-dependent kinase 4; experiment: PROTAC activity at CRBN/CDK4 in human NCI-H3122 cells assessed as downregulation of phosphorylated Rb level by Western blot analysis; format: cell-based
NCI-H3122 [28] = experiment: Cell cycle arrest in human NCI-H3122 cells assessed as accumulation of cells at G0/G1 phase at 0.312 uM incubated for 24 hrs by propidium iodide staining based flow cytometric analysis (reference value: 48.68%); format: functional
NCI-H3122 [29] = experiment: Induction of apoptosis in human NCI-H3122 cells assessed as necrotic cells at 0.312 uM incubated for 48 hrs by Annexin V-FITC/propidium iodide staining based flow cytometric analysis (reference value: 0.57%); format: functional

T2 sequence (Q96SW2 whole entry partner, the tested form may be a part): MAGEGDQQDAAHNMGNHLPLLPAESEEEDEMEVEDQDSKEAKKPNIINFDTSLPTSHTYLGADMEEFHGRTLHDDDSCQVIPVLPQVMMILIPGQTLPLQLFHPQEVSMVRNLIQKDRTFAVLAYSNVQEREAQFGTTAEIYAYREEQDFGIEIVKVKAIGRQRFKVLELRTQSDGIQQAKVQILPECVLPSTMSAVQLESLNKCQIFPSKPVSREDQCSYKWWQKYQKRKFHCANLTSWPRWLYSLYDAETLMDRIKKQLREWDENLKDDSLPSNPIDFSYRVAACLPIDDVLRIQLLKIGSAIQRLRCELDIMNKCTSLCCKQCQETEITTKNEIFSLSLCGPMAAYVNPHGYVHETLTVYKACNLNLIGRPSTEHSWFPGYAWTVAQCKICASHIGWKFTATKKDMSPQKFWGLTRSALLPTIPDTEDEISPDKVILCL
T2 sequence (Q9HC35 whole entry partner, the tested form may be a part): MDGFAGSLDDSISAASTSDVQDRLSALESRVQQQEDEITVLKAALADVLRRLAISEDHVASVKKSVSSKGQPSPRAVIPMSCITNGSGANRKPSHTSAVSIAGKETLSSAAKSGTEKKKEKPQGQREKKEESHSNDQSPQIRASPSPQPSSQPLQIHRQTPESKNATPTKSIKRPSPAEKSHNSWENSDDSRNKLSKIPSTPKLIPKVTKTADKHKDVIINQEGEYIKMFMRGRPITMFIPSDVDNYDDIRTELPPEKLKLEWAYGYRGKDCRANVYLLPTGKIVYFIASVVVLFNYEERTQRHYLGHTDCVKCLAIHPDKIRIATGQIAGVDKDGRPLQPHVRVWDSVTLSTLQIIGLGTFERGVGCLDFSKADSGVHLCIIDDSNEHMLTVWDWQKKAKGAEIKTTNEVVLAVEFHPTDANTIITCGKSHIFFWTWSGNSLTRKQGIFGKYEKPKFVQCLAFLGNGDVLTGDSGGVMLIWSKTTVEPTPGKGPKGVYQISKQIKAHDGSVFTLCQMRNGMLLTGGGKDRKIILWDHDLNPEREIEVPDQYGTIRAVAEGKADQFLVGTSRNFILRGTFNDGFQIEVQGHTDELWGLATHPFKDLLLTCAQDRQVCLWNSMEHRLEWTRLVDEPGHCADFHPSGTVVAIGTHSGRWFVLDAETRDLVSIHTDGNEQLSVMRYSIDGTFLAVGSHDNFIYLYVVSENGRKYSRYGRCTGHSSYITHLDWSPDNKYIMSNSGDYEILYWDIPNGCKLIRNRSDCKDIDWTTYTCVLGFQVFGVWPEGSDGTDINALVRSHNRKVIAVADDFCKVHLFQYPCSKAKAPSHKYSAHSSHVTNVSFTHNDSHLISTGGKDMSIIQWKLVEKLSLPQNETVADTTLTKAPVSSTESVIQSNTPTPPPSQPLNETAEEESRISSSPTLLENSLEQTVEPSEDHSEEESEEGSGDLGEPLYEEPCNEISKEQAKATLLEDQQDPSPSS
T2 sequence (Q9UM73 19-1620 limits assumed): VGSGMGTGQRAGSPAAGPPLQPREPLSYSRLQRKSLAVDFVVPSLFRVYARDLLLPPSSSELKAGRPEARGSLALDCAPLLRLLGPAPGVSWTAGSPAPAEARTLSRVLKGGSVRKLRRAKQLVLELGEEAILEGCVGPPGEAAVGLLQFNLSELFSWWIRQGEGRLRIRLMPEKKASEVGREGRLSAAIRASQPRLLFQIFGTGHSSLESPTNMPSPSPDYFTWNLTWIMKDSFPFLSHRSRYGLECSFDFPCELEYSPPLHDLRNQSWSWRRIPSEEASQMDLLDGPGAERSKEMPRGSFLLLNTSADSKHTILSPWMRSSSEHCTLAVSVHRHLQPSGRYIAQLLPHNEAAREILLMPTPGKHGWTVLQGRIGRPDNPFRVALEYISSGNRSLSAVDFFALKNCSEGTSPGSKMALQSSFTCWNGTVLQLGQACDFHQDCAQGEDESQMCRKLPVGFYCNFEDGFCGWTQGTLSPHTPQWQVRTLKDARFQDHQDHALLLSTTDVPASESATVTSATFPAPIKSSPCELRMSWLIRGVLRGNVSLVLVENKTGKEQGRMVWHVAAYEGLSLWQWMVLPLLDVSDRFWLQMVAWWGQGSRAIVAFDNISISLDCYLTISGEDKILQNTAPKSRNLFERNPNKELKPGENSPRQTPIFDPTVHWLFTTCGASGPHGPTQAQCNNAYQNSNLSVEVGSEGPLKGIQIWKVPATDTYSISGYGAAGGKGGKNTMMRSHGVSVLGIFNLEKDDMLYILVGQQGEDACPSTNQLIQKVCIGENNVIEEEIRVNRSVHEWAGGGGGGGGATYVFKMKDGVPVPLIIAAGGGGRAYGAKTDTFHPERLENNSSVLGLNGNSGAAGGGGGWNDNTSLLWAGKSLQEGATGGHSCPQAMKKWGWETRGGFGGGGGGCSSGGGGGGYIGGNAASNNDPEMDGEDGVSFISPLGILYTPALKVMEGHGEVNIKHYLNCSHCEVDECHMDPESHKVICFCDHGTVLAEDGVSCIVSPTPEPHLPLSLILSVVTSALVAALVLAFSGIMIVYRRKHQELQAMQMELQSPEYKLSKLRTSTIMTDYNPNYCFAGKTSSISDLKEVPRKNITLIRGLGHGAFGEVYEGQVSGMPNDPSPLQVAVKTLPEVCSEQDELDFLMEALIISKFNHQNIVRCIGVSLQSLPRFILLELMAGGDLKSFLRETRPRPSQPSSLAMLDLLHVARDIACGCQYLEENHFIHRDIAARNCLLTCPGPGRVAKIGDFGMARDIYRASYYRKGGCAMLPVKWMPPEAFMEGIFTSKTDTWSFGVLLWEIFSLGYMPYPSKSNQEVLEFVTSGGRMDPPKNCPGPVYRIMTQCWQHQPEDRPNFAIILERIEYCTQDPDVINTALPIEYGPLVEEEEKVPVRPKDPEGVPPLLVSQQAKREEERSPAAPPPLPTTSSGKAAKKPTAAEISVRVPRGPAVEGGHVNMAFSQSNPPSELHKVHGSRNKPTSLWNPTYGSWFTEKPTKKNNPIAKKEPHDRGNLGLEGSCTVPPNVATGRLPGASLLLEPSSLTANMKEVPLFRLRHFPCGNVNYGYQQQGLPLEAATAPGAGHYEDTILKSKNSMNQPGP
T1 sequence (P11802 2-303 limits assumed): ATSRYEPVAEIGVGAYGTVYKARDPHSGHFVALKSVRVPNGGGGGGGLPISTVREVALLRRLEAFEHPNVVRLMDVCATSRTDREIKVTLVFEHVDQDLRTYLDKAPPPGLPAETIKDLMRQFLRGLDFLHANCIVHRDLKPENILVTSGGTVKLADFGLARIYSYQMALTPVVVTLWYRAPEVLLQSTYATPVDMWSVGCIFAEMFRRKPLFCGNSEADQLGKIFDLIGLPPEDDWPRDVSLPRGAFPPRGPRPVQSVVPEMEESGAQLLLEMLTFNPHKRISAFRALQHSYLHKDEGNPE
T1 sequence (Q96SW2 whole entry partner, the tested form may be a part): as the sequence (Q96SW2 whole entry partner, the tested form may be a part) above
Chain of Protein cereblon/ALK tyrosine kinase receptor (Homo sapiens) (Q96SW2 whole entry partner): as the sequence (Q96SW2 whole entry partner, the tested form may be a part) above
Chain of Protein cereblon/ALK tyrosine kinase receptor (Homo sapiens) (Q9UM73 19-1620 limits assumed): as the sequence (Q9UM73 19-1620 limits assumed) above
Chain of ALK tyrosine kinase receptor (Homo sapiens) (Q9UM73 19-1620 limits assumed): as above

- Activity [1]: inactive
- Activity [2]: inactive
- Activity [3]: Active
- Activity [4]: inactive
- Stability [6]: Stable
- Activity [10]: Active
- Activity [11]: Active
- IC50 (NCI-H3122 [12]): 110 nM
- Activity [13]: inactive
- Activity [14]: inactive
- half-life [20]: > 24 h
- Activity [23]: Active
- IC50 (NCI-H2228): 1760 nM
- inhibition [25]: 68.3%
- Activity [27]: Active
SMILES: CC(=O)c1c(C)c2cnc(Nc3ccc(N4CCN(CC(=O)NCCSSCCN(CC(=O)NCCNc5cccc6c5C(=O)N(C5CCC(=O)NC5=O)C6=O)C(=O)CCCCCCC(=O)N5CCC(c6cc(OC(C)C)c(Nc7ncc(Cl)c(Nc8ccccc8S(=O)(=O)C(C)C)n7)cc6C)CC5)CC4)cn3)nc2n(C2CCCC2)c1=O (stereo not given)
- Activity (NCI-H3122 [5]): Active
- Activity (NCI-H3122 [7]): 68.5%
- Activity (NCI-H3122 [8]): 18.82%
- Activity (NCI-H3122 [9]): 81.72%
- viability at 0.625 µM (NCI-H3122 [15]): 88.9%
- Activity [16]: Non-Toxic
- Activity [17]: Non-Toxic
- Activity [18]: Non-Toxic
- Activity (NCI-H3122 [19]): 1.01%
- Activity (NCI-H3122 [21]): 72.25%
- Activity (NCI-H3122 [22]): 0.88%
- Activity [24]: Non-Toxic
- Activity (NCI-H3122 [26]): 1.92%
- Activity (NCI-H3122 [28]): 63.17%
- Activity (NCI-H3122 [29]): 0.6%
